Measured values as given in patent US20230145835A1, “Modulators of Alpha-4-beta-7 Integrin and MAdCAM” (48HD Biopharma Inc., priority 2021, published 2023).
Numbered stars: 1 amine (or outer) side, 2 acyl side, 3 side chain; on linkers, the order of the positions; unused ones are H or OH. Bridge positions count the residues as written; N and C are the ends. Square brackets hold non-standard residues; d marks the D form. Peptide text beside a SMILES is read from it. X12 = NC(=O)CC[C@@H](N[*:1])C(=O)C[C@@H](Cc1cnc[nH]1)C(=O)[*:2]; X13 = O=C(/C=N/OCCCCCCOC1=CC(C[*:3])=CC(C[*:2])C1)[*:1]; X3 = O=C(/C=N/OCCCCCCOc1cc(C[*:2])cc(C[*:3])c1)[*:1]; X1 = O=C(C=NOCCCCCCOc1cc(C[*:2])cc(C[*:3])c1)[*:1]; tBuAla = CC(C)(C)C[C@H](N)C(=O)O; Cba = N[C@@H](CC1CCC1)C(=O)O; Nle = CCCC[C@H](N)C(=O)O

What follows are compounds tested against T1, rh-integrin α4β7/LPAM-1 (Homo sapiens, UniProt P13612+P26010) (assay: α4β7-MadCAM Competition ELISA (Example 4)). Conditions: Table 3 Representative compounds; inhibition of MAdCAM binding to coated α4β7; read-out: IC50.
T1 sequence (P13612 34-977 limits assumed): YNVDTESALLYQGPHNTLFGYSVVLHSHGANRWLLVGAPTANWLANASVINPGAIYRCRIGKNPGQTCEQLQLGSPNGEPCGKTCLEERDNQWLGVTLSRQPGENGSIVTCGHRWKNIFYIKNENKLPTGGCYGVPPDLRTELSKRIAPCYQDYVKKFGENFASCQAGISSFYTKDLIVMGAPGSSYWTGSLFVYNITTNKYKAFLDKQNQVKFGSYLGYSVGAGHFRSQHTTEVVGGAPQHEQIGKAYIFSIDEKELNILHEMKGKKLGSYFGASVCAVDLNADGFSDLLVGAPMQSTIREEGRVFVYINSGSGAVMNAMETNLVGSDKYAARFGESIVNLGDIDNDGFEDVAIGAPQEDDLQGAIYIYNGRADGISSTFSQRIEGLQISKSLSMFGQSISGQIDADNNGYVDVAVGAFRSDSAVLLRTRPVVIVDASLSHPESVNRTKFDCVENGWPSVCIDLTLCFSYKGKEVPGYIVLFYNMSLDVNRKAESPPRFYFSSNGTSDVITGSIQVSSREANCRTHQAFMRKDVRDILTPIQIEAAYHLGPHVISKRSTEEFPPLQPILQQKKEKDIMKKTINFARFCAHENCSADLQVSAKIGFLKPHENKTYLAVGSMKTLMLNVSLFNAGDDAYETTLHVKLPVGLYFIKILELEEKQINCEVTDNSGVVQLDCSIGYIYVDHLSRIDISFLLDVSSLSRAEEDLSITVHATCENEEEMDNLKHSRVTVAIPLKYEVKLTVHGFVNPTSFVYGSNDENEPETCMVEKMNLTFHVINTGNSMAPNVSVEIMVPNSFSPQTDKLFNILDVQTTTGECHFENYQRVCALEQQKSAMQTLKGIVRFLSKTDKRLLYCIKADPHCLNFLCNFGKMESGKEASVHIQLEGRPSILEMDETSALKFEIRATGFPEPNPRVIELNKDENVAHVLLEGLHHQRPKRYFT
T1 sequence (P26010 20-723 limits assumed): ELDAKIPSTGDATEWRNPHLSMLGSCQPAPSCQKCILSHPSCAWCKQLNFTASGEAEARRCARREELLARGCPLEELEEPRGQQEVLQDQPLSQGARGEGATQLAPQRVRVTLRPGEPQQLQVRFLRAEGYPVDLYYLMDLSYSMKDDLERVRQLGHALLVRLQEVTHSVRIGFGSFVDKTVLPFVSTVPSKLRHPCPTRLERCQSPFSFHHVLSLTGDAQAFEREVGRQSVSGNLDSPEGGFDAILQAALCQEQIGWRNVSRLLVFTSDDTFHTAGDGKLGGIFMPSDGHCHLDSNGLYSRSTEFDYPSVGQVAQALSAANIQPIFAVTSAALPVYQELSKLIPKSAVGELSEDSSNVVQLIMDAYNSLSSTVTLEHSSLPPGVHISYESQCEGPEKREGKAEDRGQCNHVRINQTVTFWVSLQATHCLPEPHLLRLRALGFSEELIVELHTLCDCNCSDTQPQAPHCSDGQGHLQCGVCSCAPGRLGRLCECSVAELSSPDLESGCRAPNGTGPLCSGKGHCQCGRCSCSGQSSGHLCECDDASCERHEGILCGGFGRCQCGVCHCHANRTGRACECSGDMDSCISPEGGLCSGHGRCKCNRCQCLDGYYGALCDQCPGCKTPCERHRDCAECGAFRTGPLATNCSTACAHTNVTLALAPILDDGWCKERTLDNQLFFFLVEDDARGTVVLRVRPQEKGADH
Type: binding
Description: After washing with wash buffer, 200 μL assay buffer was added to each well and incubated for one hour at 28° C. After another wash with wash buffer, 100 μL of a MAdCAM and peptide mixture in assay buffer was added to each well and incubated for one hour at 28° C., followed by washing with wash buffer.
C[C@@H]1NC(=O)/C=N/OCCCCCCOC2=CC3=CC(CSC[C@H](NC1=O)C(=O)N[C@@H](C)C(=O)N[C@@H](Cc1c[nH]c4ccccc14)C(=O)N[C@@H](Cc1cnc[nH]1)C(=O)N[C@H](CCC(N)=O)C(=O)C[C@@H](Cc1cnc[nH]1)C(=O)N[C@@H](C)C(=O)N[C@H](C(N)=O)CSC3)C2 [compound 57, TSL6- SACAWHQHAC] (ACAWH[X12]AC-NH2; linker N-2-8 via X13) gave an IC50 of 3.89 µM.
Work on CC(C)C[C@H]1NC(=O)[C@@H]2CCCN2C(=O)[C@@H]2CSCc3cc(cc(c3)OCCCCCCO/N=C/C(=O)N[C@@H](C)C(=O)N2)CSC[C@@H](C(N)=O)NC(=O)[C@H](CO)NC(=O)[C@@H]2CCCN2C(=O)[C@H](C(C)C)NC(=O)[C@H](CC(=O)O)NC1=O [compound 74, TSL6- SACPLDVPSC] (ACP[dL]DVPSC-NH2; linker N-2-9 via X3) yielded an IC50 of 31 µM.
With CC(C)C[C@@H]1NC(=O)[C@H](C)NC(=O)[C@@H]2CSCc3cc(cc(c3)OCCCCCCO/N=C/C(=O)N[C@@H](CCCCN)C(=O)N2)CSC[C@@H](C(N)=O)NC(=O)[C@H](CCC(=O)O)NC(=O)[C@H](Cc2ccc(O)cc2)NC(=O)[C@@H]2CCCN2C(=O)[C@H]([C@@H](C)O)NC(=O)[C@H](CC(=O)O)NC1=O (stereo in doubt) [compound 53, TSL6- SKCALDTPYEC] the IC50 was 2.7 µM.
CC[C@H](C)[C@@H]1NC(=O)[C@H](CC(=O)O)NC(=O)[C@H](CCSC)NC(=O)[C@@H]2CCCN2C(=O)[C@@H]2CSCc3cc(cc(c3)OCCCCCCO/N=C/C(=O)N[C@@H](CCC(N)=O)C(=O)N2)CSC[C@@H](C(N)=O)NC(=O)[C@H](C)NC(=O)[C@@H]2CCCN2C1=O [compound 46, TSL6- SQCPMDIPAC] (QCPMDIPAC-NH2; linker N-2-9 via X3) gave an IC50 of 1.64 µM.
CC[C@H](C)[C@@H]1NC(=O)[C@H](Cc2ccc(O)cc2)NC(=O)[C@H](CC(C)C)NC(=O)[C@@H]2CCCN2C(=O)[C@@H]2CSCc3cc(cc(c3)OCCCCCCO/N=C/C(=O)N[C@@H](CCSC)C(=O)N2)CSC[C@@H](C(N)=O)NC(=O)[C@H](Cc2cnc[nH]2)NC(=O)[C@H](C(C)C)NC1=O [compound 72, TSL6- SMCPLYIVHC] (MCPLYIVHC-NH2; linker N-2-9 via X3) gave an IC50 of 29.4 µM.
In the case of CC(=O)N[C@H]1CSSC[C@@H](C(=O)NCC(=O)N[C@@H](CCC(=O)O)C(N)=O)NC(=O)[C@H](CC(C)C)NC(=O)[C@H]([C@@H](C)O)NC(=O)[C@H](CC(=O)O)NC(=O)[C@H](CO)NC(=O)[C@H](CCCNC(=N)N)NC1=O [compound 7] (Ac-CRSDTLCGE-NH2; disulfide 1-7), the IC50 is reported as 0.136 µM.
With CC(C)C[C@@H]1NC(=O)[C@@H]2CCCN2C(=O)[C@@H]2CSCc3cc(cc(c3)OCCCCCCO/N=C/C(=O)N[C@@H](CCCCN)C(=O)N2)CSC[C@@H](C(N)=O)NC(=O)[C@H](CO)NC(=O)[C@@H]2CCCN2C(=O)[C@H](C(C)C)NC(=O)[C@H](CC(=O)O)NC1=O [compound 31, TSL6- SKCPLDVPSC] (KCPLDVPSC-NH2; linker N-2-9 via X3) the IC50 was 0.723 µM.
CCCC[C@@H]1NC(=O)[C@@H]2CCCN2C(=O)[C@@H]2CSCc3cc(cc(c3)OCCCCCCO/N=C/C(=O)N[C@@H](CCCNC(=N)N)C(=O)N2)CSC[C@@H](C(N)=O)NC(=O)[C@H](CCC(=O)O)NC(=O)[C@H](CCC(N)=O)NC(=O)[C@H](Cc2c[nH]c3ccccc23)NC(=O)[C@H](C(C)C)NC(=O)[C@H](CC(=O)O)NC1=O [compound 3] (RCP[Nle]DVWQEC-NH2; linker N-2-10 via X3) gave an IC50 of 0.053 µM.
C[C@@H](O)[C@@H]1NC(=O)[C@H](CC(=O)O)NC(=O)[C@@H]2CCCN2C(=O)[C@H](Cc2c[nH]c3ccccc23)NC(=O)[C@@H]2CSCc3cc(cc(c3)OCCCCCCO/N=C/C(=O)N[C@@H](CC(=O)O)C(=O)N2)CSC[C@H](C(N)=O)NC(=O)[C@H](Cc2cnc[nH]2)NC(=O)[C@H](Cc2ccc(O)cc2)NC1=O [compound 95, TSL6- SDCWPDTYHC] (DCWPDTYH[dC]-NH2; linker N-2-9 via X3) gave an IC50 of 114 µM.
Compound CCCC[C@@H]1NC(=O)[C@H](CO)NC(=O)[C@@H]2CSSC[C@@H](C(=O)N[C@@H](Cc3c[nH]c4ccccc34)C(=O)N[C@@H](CCC(N)=O)C(N)=O)NC(=O)[C@H](CC(C)C)NC(=O)[C@@H]([C@H](C)O)NC(=O)[C@H](CC(=O)O)NC(=O)[C@H](CO)NC(=O)[C@H](CCCNC(=N)N)NC(=O)[C@H](CSCC(=O)N[C@@H](CCCNC(=N)N)C(=O)N2)NC(=O)[C@H](CC(C)C)NC(=O)[C@H](CC(=O)O)NC1=O [compound 76, Disulfide- RCS{Nle}DICRS DTLCWQ] ({CH2CO}-RCS[Nle]DLCRSD[dT]LCWQ-NH2; disulfide 2-13; thioether N-7) has an IC50 of 34.3 µM.
CC(C)(C)C[C@@H]1NC(=O)[C@H](CC(=O)O)NC(=O)[C@H](CC2CCC2)NC(=O)[C@@H]2CCCN2C(=O)[C@@H]2CSCc3cc(cc(c3)OCCCCCCO/N=C/C(=O)N[C@@H](CCCNC(=N)N)C(=O)N2)CSC[C@@H](C(N)=O)NC(=O)[C@H](CCC(=O)O)NC(=O)[C@H](CCC(N)=O)NC(=O)[C@H](Cc2c[nH]c3ccccc23)NC1=O [compound 56, TSL6-SRCP{CbA}D {tBuAla}WQEC] (RCP[Cba]D[tBuAla]WQEC-NH2; linker N-2-10 via X3) was tested, and the IC50 was 3.89 µM.

Same assay, conditions: competition ELISA, 4 μg/mL α4β7 coated, MAdCAM and peptide mixture, 28° C.; read-out: IC50
With CC[C@H](C)[C@@H]1NC(=O)[C@H](CC(=O)O)NC(=O)[C@H](CC(C)C)NC(=O)[C@H](CCCCN)NC(=O)[C@@H]2CSCc3cc(cc(c3)OCCCCCCON=CC(=O)N[C@@H](Cc3c[nH]cn3)C(=O)N2)CSC[C@@H](C(=O)O)NC(=O)[C@H](C(C)C)NC(=O)[C@H](Cc2c[nH]c3ccccc23)NC1=O [SEQ ID NO: 73] (HCKLDIWVC-OH; linker N-2-9 via X1) the IC50 was > 500 µM.
In the case of CC(C)C[C@@H]1NC(=O)[C@@H]2CCCN2C(=O)[C@@H]2CSCc3cc(cc(c3)OCCCCCCON=CC(=O)N[C@@H](CCCCN)C(=O)N2)CSC[C@@H](C(=O)O)NC(=O)[C@H](CCC(=O)O)NC(=O)[C@H](Cc2ccc(O)cc2)NC(=O)[C@@H]2CCCN2C(=O)[C@H](CC(C)C)NC(=O)[C@H](CC(=O)O)NC1=O [SEQ ID NO: 134] (KCPLDLPYEC-OH; linker N-2-10 via X1), the IC50 is reported as 0.363 µM.
Compound CC(C)(C)C[C@@H]1NC(=O)[C@H](CC(=O)O)NC(=O)[C@H](CC2CCC2)NC(=O)[C@@H]2CCCN2C(=O)[C@@H]2CSCc3cc(cc(c3)OCCCCCCON=CC(=O)N[C@@H](CCCNC(=N)N)C(=O)N2)CSC[C@@H](C(=O)O)NC(=O)[C@H](CCC(=O)O)NC(=O)[C@H](CCC(N)=O)NC(=O)[C@H](Cc2c[nH]c3ccccc23)NC1=O [SEQ ID NO: 105] (RCP[Cba]D[tBuAla]WQEC-OH; linker N-2-10 via X1) has an IC50 of 3.89 µM.
With C[C@@H]1NC(=O)[C@@H]2CCCN2C(=O)[C@@H]2CSCc3cc(cc(c3)OCCCCCCON=CC(=O)N[C@@H](CCCCN)C(=O)N2)CSC[C@@H](C(=O)O)NC(=O)[C@H](CCC(=O)O)NC(=O)[C@H](Cc2ccc(O)cc2)NC(=O)[C@@H]2CCCN2C(=O)[C@H]([C@@H](C)O)NC(=O)[C@H](CC(=O)O)NC1=O [SEQ ID NO: 71] (KCPADTPYEC-OH; linker N-2-10 via X1) the IC50 was > 500 µM.
Work on CCCC[C@@H]1NC(=O)[C@@H]2CCCN2C(=O)[C@@H]2CSCc3cc(cc(c3)OCCCCCCON=CC(=O)N[C@@H](CCCNC(=N)N)C(=O)N2)CSC[C@@H](C(=O)O)NC(=O)[C@H](CCC(=O)O)NC(=O)CNC(=O)[C@H](C)NC(=O)[C@H](C(C)C)NC(=O)[C@H](CC(=O)O)NC1=O [SEQ ID NO: 138] (RCP[Nle]DVAGEC-OH; linker N-2-10 via X1) yielded an IC50 of 0.261 µM.
